The values that follow come from US10179799B2, “Method for producing P1,P4-di(uridine 5′-) tetraphosphate” (YAMASA CORPORATION, priority 2012, dated 2019).

A short description of the series: Determination of stability of UTP and related compound (solution left to stand, HPLC, decomposition rate). The class given is physicochemical. How it is done:
In order to evaluate stability of UTP free, stability of aqueous solutions of UTP free and UTP sodium salt (UTP-Na) and a dimethylacetamide solution of UTP-tributylamine salt (UTP-TBA) was examined. Also, stability of aqueous solutions of UDP free and UDP-Na as comparison control was also determined. The solution of each substance was left to stand for a certain period at −20° C., 25° C. or 50° C., and the concentration of each substance was determined by HPLC to calculate a decomposition rate. Here, the decomposition rate was defined as the following [equation 1]. Decomposition rate (%) of each substance={100−(HPLC % of each substance at determination/HPLC % of each substance at test start)×100} [equation 1]

[1] abbreviates: aqueous solution left to stand at 25° C., 8 h, 16 mM UTP free, 10 mM UDP free.
Where [2] appears, read: aqueous solution left to stand at 25° C., 24 h, 16 mM UTP free, 10 mM UDP free.
Setting [3] is: 50° C., 8 h, 35 mM UTP-TBA in dimethylacetamide solution, 40 mM UTP-Na and 40 mM UDP-Na in aqueous solution.
Setting [4] is: 50° C., 24 h, 35 mM UTP-TBA in dimethylacetamide solution, 40 mM UTP-Na and 40 mM UDP-Na in aqueous solution.

Molecules are shown by their SMILES. Read-outs that look alike come from different tables or passages of the source.

In turn, `O=c1ccn([C@@H]2O[C@H](COP(=O)(O)OP(=O)(O)O)[C@@H](O)[C@H]2O)c(=O)[nH]1` [UDP free, uridine 5′-diphosphoric acid] had a Decomposition rate under setting [1] of 0% and a Decomposition rate under setting [2] of 0%.

Consider `O=c1ccn([C@@H]2O[C@H](COP(=O)([O-])OP(=O)([O-])O)[C@@H](O)[C@H]2O)c(=O)[nH]1.[Na+].[Na+]` [UDP-Na, UDP sodium salt], for which the Decomposition rate worked out at 2% under setting [3] and 5% under setting [4].

On to `O=c1ccn([C@@H]2O[C@H](COP(=O)(O)OP(=O)(O)OP(=O)(O)O)[C@@H](O)[C@H]2O)c(=O)[nH]1` [UTP free, uridine 5′-triphosphoric acid], for which the “Stability during storage of the solution” value is reported as “clearly low stability”. The Decomposition rate under setting [1] came to 4%. This compound also returned a Decomposition rate under setting [2] of 12%. Also, the Decomposition rate (aqueous solution left to stand at −20° C., 18 h, 16 mM UTP free) is listed as 4%.

Take `O=c1ccn([C@@H]2O[C@H](COP(=O)([O-])OP(=O)([O-])OP(=O)([O-])O)[C@@H](O)[C@H]2O)c(=O)[nH]1.[Na+].[Na+].[Na+]` [UTP-Na, UTP sodium salt]: the Decomposition rate reads like this: under setting [3], 2%; under setting [4], 6%.

As to `CCCCN(CCCC)CCCC.O=c1ccn([C@@H]2O[C@H](COP(=O)(O)OP(=O)(O)OP(=O)(O)O)[C@@H](O)[C@H]2O)c(=O)[nH]1` [UTP-TBA, UTP-tributylamine salt], the Decomposition rate worked out at 7% under setting [3] and 18% under setting [4]. Besides, the “Stability during storage of the solution” value (compared to UTP sodium salt, UDP free and UDP sodium salt) was “clearly low stability”.
